Results on seven compounds are retold here after patent US20140023611A1 (priority 2010, published 2014).

By AUC is commonly meant the area under the concentration-time curve, a measure of exposure. Read a high AUC as high exposure. In general, Cmax refers to the peak of the concentration-time curve.

One data set addresses T1, rat NaP2b (SLC34A2) (Rattus norvegicus, UniProt Q9JJ09).
T1 construct: host or cells: HEK293
T1 sequence (Q9JJ09 1-695): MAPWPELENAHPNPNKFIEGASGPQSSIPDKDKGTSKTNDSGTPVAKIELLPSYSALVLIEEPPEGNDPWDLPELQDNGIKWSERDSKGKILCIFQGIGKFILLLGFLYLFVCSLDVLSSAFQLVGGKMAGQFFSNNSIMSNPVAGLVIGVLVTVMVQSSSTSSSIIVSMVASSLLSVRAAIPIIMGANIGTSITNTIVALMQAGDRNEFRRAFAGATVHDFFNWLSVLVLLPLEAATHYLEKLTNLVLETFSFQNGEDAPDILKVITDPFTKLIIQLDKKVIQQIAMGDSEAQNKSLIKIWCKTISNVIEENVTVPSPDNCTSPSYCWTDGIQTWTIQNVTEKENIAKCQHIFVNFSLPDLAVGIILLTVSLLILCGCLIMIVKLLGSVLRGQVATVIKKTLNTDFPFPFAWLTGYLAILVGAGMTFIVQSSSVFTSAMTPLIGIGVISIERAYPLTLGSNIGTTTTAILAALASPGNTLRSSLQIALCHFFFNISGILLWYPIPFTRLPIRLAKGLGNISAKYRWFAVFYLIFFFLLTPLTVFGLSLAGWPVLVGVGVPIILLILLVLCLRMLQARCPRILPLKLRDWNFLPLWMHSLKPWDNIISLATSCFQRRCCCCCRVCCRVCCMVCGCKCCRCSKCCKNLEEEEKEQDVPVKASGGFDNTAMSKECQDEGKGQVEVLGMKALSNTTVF
As to the kind of experiment: Inhibition of NaP2b-mediated Pi (33P) uptake in transfected HEK293 cells, rat NaP2b. The class given is cell-based. The conditions noted are these: 33P Pi uptake, 0.1 mM phosphate, value given as pIC50 range. In short, it runs like this:
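The cells transiently expressed NaP2b after Lipofectamine transfection. Each compound was run in duplicate over twelve concentrations, 0.1 nM–30 uM.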

A short description of data set [1]: Fecal recovery of orally administered compounds. The class given is in vivo, Sprague-Dawley rats. The following applies: Structure (I) examples, Table 16; rat, oral gavage, feces collected until 48 hr after dosing.
Text: The animals were kept in metabolic cages and feces were collected from the time of dosing until 48 hr after dosing. Upon collection, feces were dried by lyophilization and ground to a visually homogenous powder. Duplicate samples of ground feces from each individual animal were weighed out and extracted using organic solvent. […] Extraction conditions were not optimized for individual compounds, and thus may represent a minimal level of recovery.
(§1) The animals were kept in metabolic cages and feces were collected from the time of dosing until 48 hr after dosing. Upon collection, feces was dried by lyophilization and ground to a visually homogenous powder. Duplicate samples of ground feces from each individual animal were weighed out and extracted using organic solvent. […] Extraction conditions were not optimized for individual compounds, and thus may represent a minimal level of recovery.
as §1
The animals were kept in metabolic cages and feces were collected from the time of dosing until 48 hr after dosing. Upon collection, feces was dried by lyophilization and ground to a visually homogenous powder. Duplicate samples of ground feces from each individual animal were weighed out and extracted using organic solvent.

Another data set deals with T2, human NaP2b (SLC34A2) (Homo sapiens, UniProt O95436).
T2 construct: host or cells: HEK293
T2 sequence (O95436 1-690): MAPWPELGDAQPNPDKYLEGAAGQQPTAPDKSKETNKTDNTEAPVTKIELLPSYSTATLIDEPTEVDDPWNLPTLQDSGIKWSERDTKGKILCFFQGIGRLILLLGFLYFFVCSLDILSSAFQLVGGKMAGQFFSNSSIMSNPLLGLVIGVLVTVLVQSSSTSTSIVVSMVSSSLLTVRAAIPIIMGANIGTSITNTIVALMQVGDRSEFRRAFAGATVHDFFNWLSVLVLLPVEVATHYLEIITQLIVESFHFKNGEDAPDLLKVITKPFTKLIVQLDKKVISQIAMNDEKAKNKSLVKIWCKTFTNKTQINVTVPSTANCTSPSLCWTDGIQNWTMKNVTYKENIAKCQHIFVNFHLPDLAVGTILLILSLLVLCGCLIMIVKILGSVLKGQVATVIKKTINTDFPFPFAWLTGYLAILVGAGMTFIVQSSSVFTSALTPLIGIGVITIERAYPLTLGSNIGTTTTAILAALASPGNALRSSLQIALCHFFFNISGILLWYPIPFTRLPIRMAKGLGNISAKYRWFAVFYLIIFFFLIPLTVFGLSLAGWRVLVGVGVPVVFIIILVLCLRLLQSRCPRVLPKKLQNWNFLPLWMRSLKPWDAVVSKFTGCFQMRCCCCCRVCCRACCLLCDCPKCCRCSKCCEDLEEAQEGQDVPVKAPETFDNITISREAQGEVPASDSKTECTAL
As to the kind of experiment: Inhibition of NaP2b-mediated Pi (33P) uptake in transfected HEK293 cells, human NaP2b. The class given is cell-based. The following applies: read-out: pIC50 range for human NaP2b (converted). In short, it runs like this:
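Uptake of 33P-phosphate (100 uM KH2PO4 carrier, sodium vs choline buffer, pH 7.4) measured after 3-30 min at room temperature, with test compound at twelve concentrations from 0.1 nM to 30 uM in duplicate. Cells were HEK293 transfected with mutated human NaP2b (Thr insertion after 37, N39D) and treated with a PiT-silencing agent. pIC50 values from scintillation counts.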

Data set [2] deals with Uptake of Phosphorus from the Intestine. As to the kind of experiment: In vivo co-dosing in chow (urine P out / P consumed). The following applies: Rattus norvegicus, feed or water, rats, compound in chow, read-out: Mean % inhibition Urine Pout/P consumed; for inhibition in vivo at 100 mg/kg/day: mean drug dose 100 mg/kg/day. An excerpt: Male, 7-week-old Sprague-Dawley rats (Charles-River laboratories international, Hollister, Calif.) were allowed to acclimate for a minimum of 3 days. The experiment was initiated by switching animals to a synthetic diet (0.6% phosphorus and 0.6% calcium, Harlan Teklad TD.84122) for four days. After this time, the animals were placed into metabolic cages for daily monitoring of food and water consumption, as well as urine and fecal collections. Test compounds were incorporated into the powdered diet listed above containing 3% chocolate flavoring (w/w, BioServ #7345) at 1.3 mg test compound per gram of diet to achieve an average daily nominal dose of 100 mg/kg/day. The actual dose received by each animal was later determined by measuring prepared diet consumption and body weight. Urine samples were collected in three daily periods from 24-48, 48-72, and 72-96 hours of drug dosing. Averaging these three 24 h periods allows for the more representative measurements of urination, fecal excretion, food consumption and water uptake for each animal. Phosphorus levels in the urine were determined by anion exchange chromatography using a Dionex ICS-3000 ion chromatography system. Urine samples were diluted 1:500 or 1:1000 and injected onto an IonPac AS18 analytical column (2×250 mm) using a potassium hydroxide eluent. Elution of urine phosphate ions was monitored via conductivity detector and reported as ppm relative to a standard ion solution containing phosphate. Daily urinary P output relative to the P consumed in the prepared diet for each animal was calculated. The percentage inhibition of phosphorus absorption was estimated by determining the reduction of this ratio compared to the control group (animals with no drug in chow). The differences between the means of control and treated groups were evaluated by t tests. In all experiments, one group was always included that had Renvela powder blended into their chow at 0.9% targeting a dose of 750 mg/kg.

The nature of data set [3]: Stability of compounds in simulated intestinal fluid (SIF). It counts as in vitro ADME. The conditions noted are these: simulated intestinal fluid (3 mg/mL pancreatin), incubation time 6 hr, relative to t=0. In short, it runs like this: (§2)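 Compounds at […] were incubated 3 or 6 hr in USP simulated gastric fluid with 3 mg/mL pepsin or simulated intestinal fluid with 3 mg/mL pancreatin. Remaining compound was quantified by HPLC-UV or HPLC-MS peak area % and reported as percent of the t=0 level in the same medium.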

The nature of data set [4]: Stability of compounds in simulated gastric fluid (SGF). The class given is in vitro ADME. The following applies: simulated gastric fluid (3 mg/mL pepsin), incubation time 6 hr, relative to t=0. In short, it runs like this: as §2
Data set [5] in a line: Determination of compound Cmax and AUC after oral gavage (plasma LC-MS/MS). It counts as in vivo, Sprague-Dawley rats. The conditions noted are these: Sprague-Dawley, rat, plasma, po, Structure (I) examples. In short, it runs like this: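 Plasma exposure measured by LC-MS/MS after acetonitrile precipitation with internal standard, quantified against a standard curve made in plasma. Compound given orally by gavage to Sprague-Dawley rats at nominal 2.5 or 10 mg/kg, with K2EDTA plasma sampled at 0.5, 1, 2 and 4 h.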

The mark [6] stands for this setting: Table 15, actual oral dose 3-15 mg/kg, plasma 0.5-4 h.

In the case of `O=C(NCc1cccc(C(F)(F)F)c1)c1ccnc(-c2cc(N3CCCCC3)ccc2NC(=O)c2cccc(CSCCCO)c2)c1` [Example 8.3], the IC50 on rat NaP2b (SLC34A2) is 1000 to 7940 nM. In addition, the “% recovered in feces” value in data set [1] is less than 20%.

Consider `CCN(CC)c1ccc(NC(=O)c2cccc(CSCCOCCOCCOCCOCCC(=O)NC(CO)(CO)CO)c2)c(-c2cc(C(=O)NCc3cccc(C(F)(F)F)c3)ccn2)c1` [Example 163, 2-(5-(diethylamino)-2-(3-(20-hydroxy-19,19-bis(hydroxymethyl)-17-oxo-5,8,11,14-tetraoxa-2-thia-18-azaicosyl)benzamido)phenyl)-N-(3-(trifluoromethyl)benzyl)isonicotinamide], for which the IC50 on human NaP2b (SLC34A2) and on rat NaP2b (SLC34A2) was 1000 to 7940 nM throughout. Also, the inhibition in vivo at 100 mg/kg/day in data set [2] was not above 10%. The “% remaining, SIF” value in data set [3] is given as 60-80%. Further, the “% remaining, SGF” value in data set [4] is more than 80%.

With `CCN(CC)c1ccc(NC(=O)c2cccc(CSCCOCCOCCOCCOCCC(=O)N(CCO)CCO)c2)c(-c2cc(C(=O)NCc3cccc(C(F)(F)F)c3)ccn2)c1` [Example 164, 2-(5-(diethylamino)-2-(3-(20-hydroxy-18-(2-hydroxyethyl)-17-oxo-5,8,11,14-tetraoxa-2-thia-18-azaicosyl)benzamido)phenyl)-N-(3-(trifluoromethyl)benzyl)isonicotinamide], the IC50 was less than 1000 nM at human NaP2b (SLC34A2) and 1000 to 7940 nM on rat NaP2b (SLC34A2). For the same compound, the inhibition in vivo at 100 mg/kg/day in data set [2] was not above 10%. Moreover, the “% remaining, SIF” value in data set [3] is recorded as 60-80%. The “% remaining, SGF” value in data set [4] was more than 80%.

As for `CCN(CC)c1ccc(NC(=O)c2cccc(COCCOCCOCCOCCOCCOCCOCCOCCOC)c2)c(-c2cc(C(=O)NCc3cccc(C(F)(F)F)c3)ccn2)c1` [Example 173, 2-(2-(3-2,5,8,11,14,17,20,23,26-nonaoxaheptacosylbenzamido)-5-(diethylamino)phenyl)-N-(3-(trifluoromethyl)benzyl)isonicotinamide], the IC50 at human NaP2b (SLC34A2) and against rat NaP2b (SLC34A2) was less than 1000 nM in each case. In addition, in data set [2] (mean drug dose 90 mg/kg/day), the inhibition in vivo at 90 mg/kg/day is not above 10%. Besides, the “% remaining, SIF” value in data set [3] is more than 80%. Further, the “% remaining, SGF” value in data set [4] is more than 80%.

Take `CCN(CC)c1ccc(NC(=O)c2cccc(C(=O)N(C)CCN3CCC[C@H]3C(=O)NCCOCCOCCOCCOCCOCCOCCOCCOC)c2)c(-c2cc(C(=O)NCc3cccc(C(F)(F)F)c3)ccn2)c1` [Example 203, (S)—N^1-(2-(2-(2,5,8,11,14,17,20,23-octaoxapentacosan-25-ylcarbamoyl)pyrrolidin-1-yl)ethyl)-N^3-(4-(diethylamino)-2-(4-((3-(trifluoromethyl)benzyl)carbamoyl)pyridin-2-yl)phenyl)-N^1-methylisophthalamide]: the IC50 at human NaP2b (SLC34A2) and against rat NaP2b (SLC34A2) was 1000 to 7940 nM each time. In addition, the inhibition in vivo at 100 mg/kg/day in data set [2] is not above 10%. Moreover, the “% remaining, SIF” value in data set [3] is more than 80%. In addition, the “% remaining, SGF” value in data set [4] is given as more than 80%.

As for `CCN(CC)c1ccc(NC(=O)c2cccc(CCCOCCOCCOCCOCCNC(=O)c3cccc(CCCOCCOCCOCCOCCOCCOCCOCCOCCOC)c3)c2)c(-c2cc(C(=O)NCc3cccc(C(F)(F)F)c3)ccn2)c1` [Example 271, 2-(2-(3-(1-(3-(2,5,8,11,14,17,20,23,26-nonaoxanonacosan-29-yl)phenyl)-1-oxo-5,8,11,14-tetraoxa-2-azaheptadecan-17-yl)benzamido)-5-(diethylamino)phenyl)-N-(3-(trifluoromethyl)benzyl)isonicotinamide], the area under the curve (AUC) in data set [5] (Table 15, actual oral dose 15-40 mg/kg, plasma 0.5-4 h) was more than 50 ng·h/mL. Besides, the Cmax in data set [5] (Table 15, plasma 0.5-4 h) was less than 30 ng/mL. The IC50 on rat NaP2b (SLC34A2) is 1000 to 7940 nM. Also, in data set [1], the “% recovered in feces” value is reported as 20-80%.

In data set [5] (setting [6]), `CCN(CC)c1ccc(NC(=O)c2cccc(C(=O)N(C)CCN3CCN(CCOCCOCCOCCOCCOCCOCCOC)C(=O)C3)c2)c(-c2cc(C(=O)N[C@H]3CCCc4ccccc43)ccn2)c1` [Example 327, (S)—N1-(2-(4-(2,5,8,11,14,17,20-heptaoxadocosan-22-yl)-3-oxopiperazin-1-yl)ethyl)-N3-(4-(diethylamino)-2-(4-(1,2,3,4-tetrahydronaphthalen-1-ylcarbamoyl)pyridin-2-yl)phenyl)-N1-methylisophthalamide] had an AUC of less than 10 ng·h/mL and a Cmax of less than 10 ng/mL. The inhibition in vivo at 100 mg/kg/day in data set [2] lay in the range of 10 to 30%. The compound also gave an IC50 against rat NaP2b (SLC34A2) of 1000 to 7940 nM. Moreover, the “% remaining, SIF” value in data set [3] is recorded as more than 80%. In addition, the “% remaining, SGF” value in data set [4] is more than 80%.
